Data as given in the supplement of paper PMC6470124.

Assays:
[1] = absolute recovery over mixed-bed multilayer solid-phase extraction; higher = better recovery; conditions: enrichment method: SPE
Outline: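 Wastewater (100–250 mL, adjusted to pH 6.5 and glass-fibre filtered) or 1000 mL unfiltered nanopure water was loaded on a three-layer mixed-bed cartridge and eluted with basic then acidic ethyl acetate/methanol. Standards were spiked before extraction, after it, or not at all, at 200 ng/L (water) or 1000 ng/L (wastewater), with class exceptions. Internal standards were added afterwards, then LC-HRMS/MS ran in both ionisation modes. Absolute recovery compares background-corrected response ratios of pre- versus post-spiked samples, averaged over at least two replicates.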

[2] = absolute recovery over vacuum-assisted evaporative concentration; higher = better recovery; conditions: enrichment method: VEC
Outline: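 Water samples (influent 6 mL, effluent 15 mL, surface and nanopure water 60 mL) were spiked with standards before concentration, after concentration or not at all, at 200 ng/L (nanopure/surface) or 1000 ng/L (wastewater), with class- and compound-specific adjustments. They were evaporated at 55 °C and 20 mbar to about 0.3 mL, brought to 0.4 mL and centrifuged. Internal standards were added afterwards and samples were analysed by LC-HRMS/MS. Absolute recovery was (response ratio pre − unspiked)/(post − unspiked) × 100, using averages of ≥ 2 replicates.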

[3] = LC retention time (Atlantis T3, 5-95% MeOH gradient, 0.1% formic acid); higher = more retained / less polar
Outline: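 Retention times were recorded for reference standards (purity ≥ 95%) on a polar reversed-phase C18 column (Atlantis T3, 3 × 150 mm, 3 μm) at 0.3 mL/min. Elution used water and methanol, each with 0.1% formic acid, in a gradient from 5 to 95% methanol over 17.5 min. Detection was by high-resolution tandem mass spectrometry on a QExactive Plus, with positive and negative electrospray in separate runs. Peaks were found and integrated in TraceFinder (5 ppm tolerance, at least three points per peak) and then checked by hand.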

Row | absolute recovery ([1]; nanopure water) [%] | absolute recovery ([1]; surface water) [%] | absolute recovery ([1]; wastewater effluent) [%] | absolute recovery ([1]; wastewater influent) [%] | absolute recovery ([2]; wastewater effluent) [%] | absolute recovery ([2]; wastewater influent) [%] | LC retention time [3] [min] | SMILES
1 | 97.7 | 22 | 51.5 | 96.2 | 90.6 | 36.6 | 23.1 | CCC(=O)OC(OP(=O)(CCCCc1ccccc1)CC(=O)N1CC(C2CCCCC2)CC1C(=O)[O-])C(C)C (configuration not stated) [Fosinopril]
2 | 93.8 | 88.9 | 90.5 | 98.7 | 104 | 102 | 18.7 | CC1CC2C3CCC4=CC(=O)C=CC4(C)C3(F)C(O)CC2(C)C1(O)C(=O)CO (configuration not stated) [Betamethasone]
3 | 10.3 | 3.8 | 4.2 | 6.4 | 124 | 96.5 | 3.46 | Nc1ccc(S(=O)(=O)[O-])cc1 [Sulfanilic-acid]
4 | 83.8 | 93.4 | 91.4 | 95.5 | 106 | 100 | 13.3 | Cc1cc(=O)n(-c2ccccc2)n1C [Phenazon (=Antipyrin)]
5 | 89.9 | 102 | 95.3 | 54.3 | 101 | 104 | 16.2 | CC(CN1c2ccccc2CCc2ccccc21)C[NH+](C)C (configuration not stated) [Trimipramin]
6 | 85.2 | 92.4 | 86.9 | 87.6 | 106 | 99.5 | 21 | CC(C)c1nc(CN(C)C(=O)NC(C(=O)NC(Cc2ccccc2)CC(O)C(Cc2ccccc2)NC(=O)OCc2cncs2)C(C)C)cs1 (configuration not stated) [Ritonavir]
7 | 99.1 | 97.9 | 90.7 | 94 | 108 | 96 | 14.5 | CC(=O)Nc1ccc(S(=O)(=O)[N-]c2cc(C)on2)cc1 [N4-Acetyl-Sulfamethoxazol]
8 | 98 | 57.1 | 89.3 | 93.6 | 98.9 | 104 | 9.31 | CS(=O)(=O)c1ccc(C(=O)[O-])c([N+](=O)[O-])c1 [Mesotrion-MNBA]
9 | 99.2 | 45.5 | 60.4 | 67.3 | 126 | 73 | 11.6 | [O-]n1nnc2ccccc21 [1-Hydroxybenzotriazole H]
10 | 101 | 95 | 96.2 | 98.7 | 111 | 101 | 18 | COC(=O)c1ccc(CNS(C)(=O)=O)cc1S(=O)(=O)[N-]C(=O)Nc1nc(OC)cc(OC)n1 [Mesosulfuron-methyl]
11 | 71.9 | 61.7 | 54.6 | 52.7 | 92.4 | 130 | 4.55 | CC1(C)CC(O)CC(C)(C)[NH+]1CCO [4-Hydroxy-1-(2-hydroxyethyl)-2-2-6-6-tetramethylpiperidine]
12 | 77.1 | 86 | 85.7 | 88.7 | 101 | 102 | 13 | CCNc1nc(NCC)nc(OC)n1 [Simeton]
13 | 86.9 | 91 | 93.2 | 93.2 | 108 | 97.1 | 13.1 | CC(=O)Nc1ccc(S(=O)(=O)[N-]c2nc(C)cc(C)n2)cc1 [N4-Acetyl-Sulfamethazin]
14 | 79.3 | 76.3 | 72 | 142 | 86.7 | 22.6 | 14.2 | O=c1[nH]sc2ccccc12 [Benzisothiazolin-3-on (=BIT)]
15 | 96.2 | 91.2 | 94.4 | 90.7 | 101 | 109 | 17.7 | CSc1nc(=O)c(C(C)(C)C)n[n-]1 [Metribuzin-Desamino (=DA)]
16 | 95.7 |  |  | 97.5 | 102 | 100 | 15.4 | Cc1ccc2[nH]nnc2c1 [5-Methyl-Benzotriazol]
17 | 82.7 | 93.3 | 103 | 62.5 | 26.4 |  | 20.6 | CCOC(=O)C1=NOC(c2ccccc2)(c2ccccc2)C1 [Isoxadifen-ethyl]
18 | 80.1 | 80.6 | 77.1 | 93.3 | 101 | 101 | 8.45 | CC[NH+]1CCCC1CNC(=O)c1cc(S(N)(=O)=O)ccc1OC (configuration not stated) [Sulpirid]
19 | 64.8 | 65.4 | 56.8 | 67.5 | 97.6 | 85 | 7.84 | CC(=O)N(C)c1ccc(N)cc1 [N-(4-Aminophenyl)-N-methyl-acetamid]
20 | 94.5 |  |  |  | 91.2 | 96.4 | 15.6 | CC(C)(C)c1n[nH]c(=O)n(N)c1=O [Metribuzin-Diketo (=DK)]
21 | 93.3 | 93.1 | 90.8 | 96.3 | 108 | 101 | 17.7 | CCCCCOC(=O)[N-]c1nc(=O)n(C2OC(C)C(O)C2O)cc1F (configuration not stated) [Capecitabin]
22 | 93.2 | 96.3 | 96 | 99.6 | 99.1 | 97 | 13.2 | COc1cc2[nH+]c(N(C)CCCNC(=O)C3CCCO3)nc(N)c2cc1OC (configuration not stated) [Alfuzosin]
23 | 98.2 | 93.4 | 93.9 | 97.1 | 103 | 104 | 13.1 | Cc1cn(C2CC(N=[N+]=[N-])C(CO)O2)c(=O)[nH]c1=O (configuration not stated) [Zidovudine]
24 |  |  |  |  | 86.8 | 100 | 17.1 | Cc1c(OCC(F)(F)F)ccnc1CS(=O)c1nc2ccccc2[nH]1 (configuration not stated) [Lansoprazole]
25 |  |  |  |  | 101 | 99.7 | 18 | CC(C)CN(CC(O)C(Cc1ccccc1)NC(=O)OC1COC2OCCC12)S(=O)(=O)c1ccc(N)cc1 (configuration not stated) [Darunavir]
26 |  |  |  |  | 60.5 | 37.5 | 14.4 | COc1cc(NC(C)CCC[NH3+])c2ncccc2c1 (configuration not stated) [Primaquine]
27 |  |  |  |  |  | 106 | 17.2 | CCc1cccc(CC)c1N(COC)C(=O)CS(=O)(=O)[O-] [Alachlor-ESA]
28 |  |  |  |  | 65.2 |  | 20.2 | CC1=C(C(=O)[O-])N2C(=O)C(NC(=O)C([NH3+])c3ccccc3)C2SC1 (configuration not stated) [Cefalexin]

More lines, now with the values behind:

Row | SMILES | absolute recovery ([1]; nanopure water) [%] | absolute recovery ([1]; surface water) [%] | absolute recovery ([1]; wastewater effluent) [%] | absolute recovery ([1]; wastewater influent) [%] | absolute recovery ([2]; wastewater effluent) [%] | absolute recovery ([2]; wastewater influent) [%] | LC retention time [3] [min]
29 | CC(C)Oc1cccc(NC(=O)c2ccccc2C(F)(F)F)c1 [Flutolanil] | 104 | 104 | 95.7 | 98 | 94 | 103 | 19.5
30 | CS(=O)(=O)c1ccc(C(=O)[C-]2C(=O)CCCC2=O)c([N+](=O)[O-])c1 [Mesotrion] |  | 96.5 | 94.6 | 80.1 | 103 | 103 | 16
31 | CCC(C)(C)C(=O)OC1=C(c2ccc(Cl)cc2Cl)C(=O)OC12CCCCC2 [Spirodiclofen] |  | 12.2 | 18 |  | 77.8 | 44.4 | 23.8
32 | CS(=O)(=O)c1ccc(C(=O)[C-]2C(=O)CCCC2=O)c(Cl)c1COCC(F)(F)F [Tembotrione] | 91.7 | 89.4 | 90.9 | 91.3 | 104 | 116 | 18.9
33 | CCNc1nc(NC(C)C)nc(OC)n1 [Atraton] | 92.8 | 94.2 | 90.4 | 96 | 101 | 102 | 14.4
34 | O=C1CCC2(O)C3Cc4ccc(O)c5c4C2(CC[NH+]3CC2CC2)C1O5 (configuration not stated) [Naltrexon] | 87.8 | 98.2 | 95.7 | 94.3 | 103 | 99 | 9.63
35 | Nc1c(Cl)c(F)nc(OCC(=O)[O-])c1Cl [Fluroxypyr (free acid)] | 97 | 95.8 | 91.7 | 89.2 | 104 | 95.6 | 17.1
36 | CON=C(C1=NOCCO1)c1ccccc1Oc1ncnc(Oc2ccccc2Cl)c1F [Fluoxastrobin] | 97.5 | 80.2 | 90.4 | 83 | 94.1 | 112 | 19.8
37 | CNC(=O)Oc1cccc2c1OC(C)(C)C2 [Carbofuran] | 91.7 | 91.3 | 94.7 | 93.5 | 83.9 | 96.7 | 17
38 | COc1nc(C)nc(NC(=O)[N-]S(=O)(=O)c2ccccc2CCC(F)(F)F)n1 [Prosulfuron] | 106 | 113 | 104 | 102 | 108 | 102 | 19.3
39 | O=C(Nc1ccccc1)N(Cc1ccc(Cl)cc1)C1CCCC1 [Pencycuron] | 84.2 | 110 |  | 80.4 | 117 | 124 | 21.4
40 | C[NH+]1CCC23c4c5ccc(O)c4OC2C(O)C=CC3C1C5 (configuration not stated) [Morphin] | 81.1 | 91.3 | 87.9 | 89.6 | 104 | 99.7 | 7.4
41 | CC(Oc1ccc(Oc2ncc(C(F)(F)F)cc2Cl)cc1)C(=O)[O-] (configuration not stated) [Haloxyfop] | 84.3 | 73.9 | 84.4 | 95.4 | 102 | 95.4 | 21
42 | Cc1[nH]c(=O)n(C(C)(C)C)c(=O)c1Cl [Terbacil] | 96.1 | 96 | 97.3 | 97.2 | 102 | 105 | 17.6
43 | CCOP(=O)(OCC)OC(=CCl)c1ccc(Cl)cc1Cl [Chlorfenvinphos] | 85.1 | 86.4 | 94.3 | 86.9 | 112 | 104 | 20.9
44 | C[Si](Cn1cncn1)(c1ccc(F)cc1)c1ccc(F)cc1 [Flusilazol] | 103 |  | 99.5 | 82.4 | 114 | 107 | 20.4
45 | CCCCc1c(C)nc(NCC)nc1OS(=O)(=O)N(C)C [Bupirimate] | 83.8 | 85.1 | 93.3 | 74.8 | 105 | 117 | 19.3
46 | CNC(=O)Oc1cc(C)c(SC)c(C)c1 [Methiocarb] | 96.3 | 95.4 | 92.7 | 88.7 | 67.9 | 64 | 19.4
47 | CCN(C)C(=O)Oc1cccc(C(C)[NH+](C)C)c1 (configuration not stated) [Rivastigmin] | 90.4 | 94.7 | 90.6 | 98.8 | 102 | 105 | 12.2
48 | COC(=O)C(C)N(C(=O)Cc1ccccc1)c1c(C)cccc1C (configuration not stated) [Benalaxyl] | 95.9 | 93 | 96 | 105 | 97.6 | 94.9 | 21.1
49 | CCOP(=O)(OCC)Oc1cc(C)nc(C(C)C)n1 [Diazoxon] |  |  |  |  | 85.6 | 95.3 | 18.8
50 | O=C([O-])C(F)(F)C(F)(F)C(F)(F)C(F)(F)C(F)(F)C(F)(F)C(F)(F)F [PFOA] |  |  |  |  | 87.3 | 90 | 20
51 | [NH3+]C(CO)(CO)CO [Trometamol] |  |  |  |  | 105 | 73.2 | 2.85
